# Measured values published in PubChem BioAssay AID1963875 (Molecular Pharmacology Branch, DTP, NCI, 2024).
# Tested on: KRAS-mutant PDC complex spheroid viability
# Assay: Anticancer human tumor 186277-243-T-J2-PDC patient-derived colon adenocarcinoma cell line growth inhibition [KRAS2]
# Settings: for viability, T/C: stronger effect = lower value
# Text: Multicellular complex tumor spheroid response to RAS pathway inhibitors in combination with a targeted agents in patient-derived cell lines with oncogenic KRAS variants from multiple cancer types
# A high-throughput screen of multi-cell type tumor spheroids was designed to identify active combinations of targeted small molecules and KRAS pathway inhibitors. Complex spheroids include a stromal component modeled by human endothelial cells (HUVEC) and fibroblasts modeled by human mesenchymal stem cells (MSCs). The concentration ranges selected for each drug and investigational agent were based upon clinically achievable concentrations if the clinical Cmax of the agent was known.
# Compounds. The drugs and investigational agents: BI-3406 (NSC825286), BAY-293 (NSC824723), batoprotafib (TNO155; NSC825523), sotorasib (AMG 510; NSC818433), MRTX1257 (NSC819558), elimusertib (BAY 1895344; NSC800525), molibresib (GSK525762; NSC774829), temuterkib (LY3214996; NSC803410), venetoclax (NSC766270), alisertib (NSC759677), olaparib (NSC753686), talazoparib (NSC767125), erdafitinib (NSC781556), ipatasertib (NSC767898), cabozantinib (NSC761068), nintedanib (NSC756659), abemaciclib (NSC768073), docetaxel (NSC628503), trametinib (NSC758246), and sapanisertib (NSC764658) were obtained from the National Cancer Institute (NCI) Developmental Therapeutics Program Chemical Repository. The FDA-approved anticancer drug set is available from the Developmental Therapeutics Program. […] The stock solutions were prepared in dimethyl sulfoxide (DMSO, Sigma-Aldrich, St. Louis, MO, cat. D2650) at 800-fold the tested concentration and stored at -70 degrees C prior to their use. All drugs and investigational agents were tested over a range starting from a high concentration at or near the clinical Cmax and decreasing in half-log increments. If the clinical Cmax for an agent had not been determined, the highest concentration tested was 10 microM.
# Cell Culture. All cells were maintained in an incubator at 37 degrees C and 5% CO2 with 95% humidity. The PDC lines were cultured according to standard operating procedures established by the NCI PDMR (https://pdmr.cancer.gov/sops/default.htm). Briefly, all PDCs were thawed and cultured in Matrigel-coated flasks prepared with a working solution of 1X Ham's F-12 nutrient mix, without supplementation (Invitrogen, Waltham, MA, cat. 11765054), 100 U/mL penicillin-streptomycin (Invitrogen, cat. 15140122), and 2.5% Matrigel (Corning Inc., Corning, NY, cat. 354248) for the first three passages. All PDCs were cultured in complete DMEM/F-12 media containing advanced DMEM/F-12 (Invitrogen, cat. 12634028), 4.9% defined fetal bovine serum, heat inactivated (HyClone Laboratories Inc., Logan, UT, cat. SH30070.03HI), 389 ng/mL hydrocortisone (Sigma-Aldrich, cat. H4001), 9.7 ng/mL human EGF recombinant protein (Invitrogen, cat. PHG0313), 23.4 microg/mL adenine (Sigma-Aldrich, cat. A2786), 97.3 U/mL penicillin-streptomycin (Invitrogen, cat. 15140122), 1.9 mM L-glutamine (Invitrogen, cat. 25030081), and 9.7 microM Y-27632 dihydrochloride (Tocris Bioscience, Bristol, United Kingdom, cat. 1254). The PDCs were cultured in complete DMEM/F12 media without 9.7 microM Y-27632 dihydrochloride for at least two passages prior to the screen. The established cell line HOP-62 was cultured in RPMI 1640 medium, HEPES (Invitrogen, cat. 22400105) with 10% defined fetal bovine serum (HyClone Laboratories Inc., cat. SH30070.03) and 2 mM L-glutamine (Invitrogen, cat. 25030081). The pooled donor HUVEC were cultured in endothelial cell growth medium 2 (PromoCell, Heidelberg, Germany, cat. C-22011) and the hMSC were cultured in mesenchymal stem cell growth medium 2 (PromoCell, cat. C-28009). For all experiments, HUVEC and hMSC were used at passages </=5, while the malignant cell lines were used at passages </=15. […]
# [1] = curve of first compound, second compound 0.1 µM
# [2] = curve of first compound, second compound 0.316 µM
# [3] = curve of first compound, second compound 1 µM
# [4] = curve of first compound, second compound 3.16 µM
# [5] = curve of first compound, second compound 10 µM
# [6] = second compound 0.1 µM, first compound 0.00316 µM
# [7] = second compound 0.1 µM, first compound 0.01 µM
# [8] = second compound 0.1 µM, first compound 0.0316 µM
# [9] = second compound 0.316 µM, first compound 0.00316 µM
# [10] = second compound 0.316 µM, first compound 0.01 µM
# [11] = second compound 0.316 µM, first compound 0.0316 µM
# [12] = second compound 1 µM, first compound 0.00316 µM
# [13] = second compound 1 µM, first compound 0.01 µM
# [14] = second compound 1 µM, first compound 0.0316 µM
# [15] = second compound 3.16 µM, first compound 0.00316 µM
# [16] = second compound 3.16 µM, first compound 0.01 µM
# [17] = second compound 3.16 µM, first compound 0.0316 µM
# [18] = second compound 10 µM, first compound 0.00316 µM
# [19] = second compound 10 µM, first compound 0.01 µM
# [20] = second compound 10 µM, first compound 0.0316 µM
# [21] = second compound 0.1 µM, first compound 0.1 µM
# [22] = second compound 0.1 µM, first compound 0.316 µM
# [23] = second compound 0.1 µM, first compound 1 µM
# [24] = second compound 0.316 µM, first compound 0.1 µM
# [25] = second compound 0.316 µM, first compound 0.316 µM
# [26] = second compound 0.316 µM, first compound 1 µM
# [27] = second compound 1 µM, first compound 0.1 µM
# [28] = second compound 1 µM, first compound 0.316 µM
# [29] = second compound 1 µM, first compound 1 µM
# [30] = second compound 3.16 µM, first compound 0.1 µM
# [31] = second compound 3.16 µM, first compound 0.316 µM
# [32] = second compound 3.16 µM, first compound 1 µM
# 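Throughout, for viability, T/C: viability read after seven days of compound exposure; 100% = DMSO vehicle-treated spheroids so lower means less viable.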
compound,measurement,setting,value
CC(=O)Nc1cccc(-n2c(=O)n(C3CC3)c(=O)c3c(Nc4ccc(I)cc4F)n(C)c(=O)c(C)c32)c1 + CC1OCC2(CCN(c3cnc(Sc4ccnc(N)c4Cl)c(N)n3)CC2)C1N,IC50,[1],0.368 nM
same,IC50,[2],0.199 nM
same,IC50,[3],0.128 nM
same,IC50,[4],< 0.1 nM
same,IC50,[5],< 0.1 nM
same,"viability, T/C","second compound 0.1 µM, first compound 0.0001 µM",116%
same,"viability, T/C","second compound 0.1 µM, first compound 0.000316 µM",56.1%
same,"viability, T/C","second compound 0.1 µM, first compound 0.001 µM",9.68%
same,"viability, T/C",[6],5%
same,"viability, T/C",[7],1.6%
same,"viability, T/C",[8],1.06%
same,"viability, T/C","second compound 0.316 µM, first compound 0.0001 µM",86.3%
same,"viability, T/C","second compound 0.316 µM, first compound 0.000316 µM",25.9%
same,"viability, T/C","second compound 0.316 µM, first compound 0.001 µM",5.13%
same,"viability, T/C",[9],3.78%
same,"viability, T/C",[10],3.34%
same,"viability, T/C",[11],0.76%
same,"viability, T/C","second compound 1 µM, first compound 0.0001 µM",60.8%
same,"viability, T/C","second compound 1 µM, first compound 0.000316 µM",10.9%
same,"viability, T/C","second compound 1 µM, first compound 0.001 µM",4.8%
same,"viability, T/C",[12],1.82%
same,"viability, T/C",[13],0.88%
same,"viability, T/C",[14],0.76%
same,"viability, T/C","second compound 3.16 µM, first compound 0.0001 µM",24.4%
same,"viability, T/C","second compound 3.16 µM, first compound 0.000316 µM",5.11%
same,"viability, T/C","second compound 3.16 µM, first compound 0.001 µM",2.57%
same,"viability, T/C",[15],1.18%
same,"viability, T/C",[16],0.59%
same,"viability, T/C",[17],0.6%
same,"viability, T/C","second compound 10 µM, first compound 0.0001 µM",10%
same,"viability, T/C","second compound 10 µM, first compound 0.000316 µM",3.24%
same,"viability, T/C","second compound 10 µM, first compound 0.001 µM",1.99%
same,"viability, T/C",[18],0.72%
same,"viability, T/C",[19],0.68%
same,"viability, T/C",[20],0.55%
C=CC(=O)N1CCN(c2nc(OCC3CCCN3C)nc3c2CCN(c2cccc4cccc(C)c24)C3)CC1CC#N (stereo not drawn),"viability, T/C",compound 0.0316 µM,98.9% [middle of 16 runs]
same,IC50,"compound alone, run of 07/19/2021",1.82 µM [middle of 4 runs]
same,IC50,"compound alone, run of 07/26/2021",1.75 µM [middle of 5 runs]
CCN1CCN(Cc2ccc(Nc3ncc(F)c(-c4cc(F)c5nc(C)n(C(C)C)c5c4)n3)nc2)CC1 + CC1OCC2(CCN(c3cnc(Sc4ccnc(N)c4Cl)c(N)n3)CC2)C1N,IC50,[1],> 1000 nM
same,IC50,[2],839 nM
same,IC50,[3],574 nM
same,IC50,[4],326 nM
same,IC50,[5],102 nM
same,"viability, T/C",[6],96.9%
same,"viability, T/C",[7],88.9%
same,"viability, T/C",[8],113%
same,"viability, T/C",[21],148%
same,"viability, T/C",[22],161%
same,"viability, T/C",[23],60.8%
same,"viability, T/C",[9],95.2%
same,"viability, T/C",[10],98.7%
same,"viability, T/C",[11],138%
same,"viability, T/C",[24],155%
same,"viability, T/C",[25],125%
same,"viability, T/C",[26],36.8%
same,"viability, T/C",[12],88.8%
same,"viability, T/C",[13],118%
same,"viability, T/C",[14],138%
same,"viability, T/C",[27],125%
same,"viability, T/C",[28],82.3%
same,"viability, T/C",[29],19.9%
same,"viability, T/C",[15],113%
same,"viability, T/C",[16],130%
same,"viability, T/C",[17],97%
same,"viability, T/C",[30],85.1%
same,"viability, T/C",[31],52.2%
same,"viability, T/C",[32],8.29%
same,"viability, T/C",[18],123%
same,"viability, T/C",[19],92.3%
same,"viability, T/C",[20],67%
same,"viability, T/C","second compound 10 µM, first compound 0.1 µM",56.8%
same,"viability, T/C","second compound 10 µM, first compound 0.316 µM",28.7%
same,"viability, T/C","second compound 10 µM, first compound 1 µM",3.85%
CC(=O)OC12COC1CC(O)C1(C)C(=O)C(O)C3=C(C)C(OC(=O)C(O)C(NC(=O)OC(C)(C)C)c4ccccc4)CC(O)(C(OC(=O)c4ccccc4)C21)C3(C)C (stereo not drawn) + C=CC(=O)N1CCN(c2nc(OCC3CCCN3C)nc3c2CCN(c2cccc4cccc(C)c24)C3)CC1CC#N,IC50,"curve of first compound, second compound 0.0316 µM",< 10 nM
same,IC50,[1],< 10 nM
same,IC50,[2],< 10 nM
same,IC50,[3],< 10 nM
same,IC50,[4],< 10 nM
same,"viability, T/C","second compound 0.0316 µM, first compound 0.01 µM",5.4%
same,"viability, T/C","second compound 0.0316 µM, first compound 0.0316 µM",3.51%
same,"viability, T/C","second compound 0.0316 µM, first compound 0.1 µM",2.98%
same,"viability, T/C","second compound 0.0316 µM, first compound 0.316 µM",2.96%
same,"viability, T/C","second compound 0.0316 µM, first compound 1 µM",3.29%
same,"viability, T/C","second compound 0.0316 µM, first compound 3.16 µM",3.21%
same,"viability, T/C",[7],4.93%
same,"viability, T/C",[8],3.47%
same,"viability, T/C",[21],3.22%
same,"viability, T/C",[22],2.86%
same,"viability, T/C",[23],3.09%
same,"viability, T/C","second compound 0.1 µM, first compound 3.16 µM",3.2%
same,"viability, T/C",[10],3.71%
same,"viability, T/C",[11],3.26%
same,"viability, T/C",[24],3.24%
same,"viability, T/C",[25],2.85%
same,"viability, T/C",[26],2.97%
same,"viability, T/C","second compound 0.316 µM, first compound 3.16 µM",3.26%
same,"viability, T/C",[13],4.4%
same,"viability, T/C",[14],4.12%
same,"viability, T/C",[27],3.41%
same,"viability, T/C",[28],3%
same,"viability, T/C",[29],3.17%
same,"viability, T/C","second compound 1 µM, first compound 3.16 µM",2.9%
same,"viability, T/C",[16],4.54%
same,"viability, T/C",[17],3.92%
same,"viability, T/C",[30],3.17%
same,"viability, T/C",[31],3.26%
same,"viability, T/C",[32],3.28%
same,"viability, T/C","second compound 3.16 µM, first compound 3.16 µM",3.25%
